# Measured values published in article PMC7686313, “Phase 1 study of mTORC1/2 inhibitor sapanisertib (TAK-228) in advanced solid tumours, with an expansion phase in renal, endometrial or bladder cancer” (British Journal of Cancer, 2020).
# Assay: Safety (adverse events, NCI CTCAE v4.0), expansion phase
# Conditions: expansion Total (n = 82)
# From the text: Based on data collected during dose-escalation, the expansion phase evaluated the safety and efficacy of QD and QW sapanisertib in patients with RCC, endometrial or bladder cancer. Patients could continue receiving sapanisertib for ≤1 year (or beyond, if the investigator and sponsor agreed) in the absence of disease progression or unacceptable toxicity.
# Patients who received ≥1 dose of sapanisertib were included in the safety population. The response-evaluable population included patients who received ≥1 dose of sapanisertib, had measurable disease at baseline, and had ≥1 postbaseline assessment. […] Adverse events (AEs) were assessed using the National Cancer Institute Common Terminology Criteria for Adverse Events, v4.0. Patients were provided with a home blood-glucose meter to monitor their fasting predose blood-glucose measurements to assess hyperglycaemia as an on-target AE and PD marker.
smiles,measurement,value
CC(C)n1nc(-c2ccc3oc(N)nc3c2)c2c(N)ncnc21 [Sapanisertib],"Abdominal pain, all-grade AE of any cause",17 (21) n (%)
same,"Abdominal pain, grade ≥3 AE of any cause",3 (4) n (%)
same,"Acute kidney injury, grade ≥3 AE of any cause",4 (5) n (%)
same,"Acute kidney injury, treatment-related AE",6 (7) n (%)
same,"Anaemia, all-grade AE of any cause",19 (23) n (%)
same,"Anaemia, grade ≥3 AE of any cause",5 (6) n (%)
same,"Anaemia, treatment-related AE",12 (15) n (%)
same,Any AE,82 (100) n (%)
same,Any AE resulting in dose modification/interruption,55 (67) n (%)
same,Any AE resulting in treatment discontinuation,12 (15) n (%)
same,Any SAE,34 (41) n (%)
same,Any grade ≥3 AE,58 (71) n (%)
same,Any treatment-related AE,82 (100) n (%)
same,Any treatment-related SAE,12 (15) n (%)
same,Any treatment-related grade ≥3 AE,38 (46) n (%)
same,"Arthralgia, all-grade AE of any cause",11 (13) n (%)
same,"Asthenia, grade ≥3 AE of any cause",3 (4) n (%)
same,"Asthenia, treatment-related AE",12 (15) n (%)
same,"Asthenia, treatment-related grade ≥3 AE",2 (2) n (%)
same,"Blood creatinine increased, all-grade AE of any cause",14 (17) n (%)
same,"Blood creatinine increased, treatment-related AE",8 (10) n (%)
same,"Constipation, all-grade AE of any cause",28 (34) n (%)
same,"Constipation, grade ≥3 AE of any cause",2 (2) n (%)
same,"Cough, all-grade AE of any cause",22 (27) n (%)
same,"Decreased appetite, all-grade AE of any cause",41 (50) n (%)
same,"Decreased appetite, treatment-related AE",37 (45) n (%)
same,"Dehydration, all-grade AE of any cause",17 (21) n (%)
same,"Dehydration, grade ≥3 AE of any cause",3 (4) n (%)
same,"Dehydration, treatment-related AE",9 (11) n (%)
same,"Dehydration, treatment-related grade ≥3 AE",2 (2) n (%)
same,"Depression, all-grade AE of any cause",8 (10) n (%)
same,"Diarrhoea, all-grade AE of any cause",41 (50) n (%)
same,"Diarrhoea, grade ≥3 AE of any cause",3 (4) n (%)
same,"Diarrhoea, treatment-related AE",35 (43) n (%)
same,"Diarrhoea, treatment-related grade ≥3 AE",3 (4) n (%)
same,"Dizziness, all-grade AE of any cause",12 (15) n (%)
same,"Dry mouth, all-grade AE of any cause",15 (18) n (%)
same,"Dry mouth, treatment-related AE",10 (12) n (%)
same,"Dysgeusia, all-grade AE of any cause",17 (21) n (%)
same,"Dysgeusia, treatment-related AE",16 (20) n (%)
same,"Dyspepsia, treatment-related AE",6 (7) n (%)
same,"Dyspnoea, grade ≥3 AE of any cause",2 (2) n (%)
same,"Fatigue, all-grade AE of any cause",60 (73) n (%)
same,"Fatigue, grade ≥3 AE of any cause",11 (13) n (%)
same,"Fatigue, treatment-related AE",56 (68) n (%)
same,"Fatigue, treatment-related grade ≥3 AE",10 (12) n (%)
same,"Haematuria, grade ≥3 AE of any cause",2 (2) n (%)
same,"Headache, all-grade AE of any cause",12 (15) n (%)
same,"Headache, treatment-related AE",4 (5) n (%)
same,"Hypercholesterolemia, treatment-related AE",1 (1) n (%)
same,"Hyperglycaemia, all-grade AE of any cause",50 (61) n (%)
same,"Hyperglycaemia, grade ≥3 AE of any cause",13 (16) n (%)
same,"Hyperglycaemia, treatment-related AE",49 (60) n (%)
same,"Hyperglycaemia, treatment-related grade ≥3 AE",13 (16) n (%)
same,"Hyperkalaemia, grade ≥3 AE of any cause",2 (2) n (%)
same,"Hypertension, grade ≥3 AE of any cause",2 (2) n (%)
same,"Hypokalaemia, grade ≥3 AE of any cause",2 (2) n (%)
same,"Hyponatremia, grade ≥3 AE of any cause",3 (4) n (%)
same,"Hypophosphatemia, grade ≥3 AE of any cause",8 (10) n (%)
same,"Hypophosphatemia, treatment-related AE",9 (11) n (%)
same,"Hypophosphatemia, treatment-related grade ≥3 AE",6 (7) n (%)
same,"Lymphopenia, grade ≥3 AE of any cause",2 (2) n (%)
same,"Lymphopenia, treatment-related grade ≥3 AE",0 (0) n (%)
same,"Musculoskeletal chest pain, grade ≥3 AE of any cause",2 (2) n (%)
same,"Nausea, all-grade AE of any cause",54 (66) n (%)
same,"Nausea, grade ≥3 AE of any cause",5 (6) n (%)
same,"Nausea, treatment-related AE",51 (62) n (%)
same,"Nausea, treatment-related grade ≥3 AE",4 (5) n (%)
same,"Oedema peripheral, all-grade AE of any cause",15 (18) n (%)
same,On-study deaths,3 (4) n (%)
same,"Oropharyngeal pain, all-grade AE of any cause",13 (16) n (%)
same,"Pain in extremity, grade ≥3 AE of any cause",3 (4) n (%)
same,"Pneumonia, grade ≥3 AE of any cause",2 (2) n (%)
same,"Pruritus generalised, all-grade AE of any cause",19 (23) n (%)
same,"Pruritus generalised, treatment-related AE",15 (18) n (%)
same,"Pruritus generalised, treatment-related grade ≥3 AE",1 (1) n (%)
same,"Pruritus, all-grade AE of any cause",15 (18) n (%)
same,"Pruritus, treatment-related AE",11 (13) n (%)
same,"Pyrexia, all-grade AE of any cause",14 (17) n (%)
same,"Rash maculo-papular, all-grade AE of any cause",24 (29) n (%)
same,"Rash maculo-papular, grade ≥3 AE of any cause",4 (5) n (%)
same,"Rash maculo-papular, treatment-related AE",17 (21) n (%)
same,"Rash maculo-papular, treatment-related grade ≥3 AE",3 (4) n (%)
same,"Rash, treatment-related AE",2 (2) n (%)
same,"Rash, treatment-related grade ≥3 AE",0 (0) n (%)
same,"Sepsis, grade ≥3 AE of any cause",2 (2) n (%)
same,"Stomatitis (includes oropharyngeal pain and mucosal inflammation), treatment-related AE",37 (45) n (%)
same,"Stomatitis, all-grade AE of any cause",40 (49) n (%)
same,"Stomatitis, grade ≥3 AE of any cause",4 (5) n (%)
same,"Stomatitis, treatment-related grade ≥3 AE",4 (5) n (%)
same,"Thrombocytopenia, grade ≥3 AE of any cause",4 (5) n (%)
same,"Thrombocytopenia, treatment-related grade ≥3 AE",4 (5) n (%)
same,"Transitional cell carcinoma, grade ≥3 AE of any cause",2 (2) n (%)
same,"Urinary tract infection, all-grade AE of any cause",15 (18) n (%)
same,"Vomiting, all-grade AE of any cause",43 (52) n (%)
same,"Vomiting, grade ≥3 AE of any cause",3 (4) n (%)
same,"Vomiting, treatment-related AE",41 (50) n (%)
same,"Weight decreased, all-grade AE of any cause",15 (18) n (%)
same,"Weight decreased, treatment-related AE",9 (11) n (%)
